Source: patent US20160050923A1, “N-SUBSTITUTED ACYL-IMINO-PYRIDINE COMPOUNDS AND DERIVATIVES FOR COMBATING ANIMAL PESTS” (BASF SE, priority 2013, published 2016)

Tests used:
Type in all cases: in vivo
Myzus persicae = test: Green peach aphid (Myzus persicae) spray test on infested bell pepper plants; details: 120 h, read-out: mortality in comparison with untreated controls
Description: B.1 Green Peach Aphid (Myzus persicae)
The active compounds were formulated by a Tecan liquid handler in 100% cyclohexanone as a 10,000 ppm solution supplied in tubes. The 10,000 ppm solution was serially diluted in 100% cyclohexanone to make interim solutions. These served as stock solutions for which final dilutions were made by the Tecan in 50% acetone:50% water (v/v) into 5 or 10 ml glass vials. A nonionic surfactant (Kinetic®) was included in the solution at a volume of 0.01% (v/v). The vials were then inserted into an automated electrostatic sprayer equipped with an atomizing nozzle for application to plants/insects.
Bell pepper plants at the first true-leaf stage were infested prior to treatment by placing heavily infested leaves from the main colony on top of the treatment plants. Aphids were allowed to transfer overnight to accomplish an infestation of 30-50 aphids per plant and the host leaves were removed. The infested plants were then sprayed by an automated electrostatic plant sprayer equipped with an atomizing spray nozzle. The plants were dried in the sprayer fume hood, removed, and then maintained in a growth room under fluorescent lighting in a 24-hr photoperiod at about 25° C. and about 20-40% relative humidity. Aphid mortality on the treated plants, relative to mortality on untreated control plants, was determined after 5 days.

Aphis craccivora = test: Cowpea aphid (Aphis craccivora) spray test on potted cowpea plants; details: 72 h, read-out: mortality in comparison with untreated controls
Description: B.4 Cowpea Aphid (Aphis craccivora)
The active compound was dissolved at the desired concentration in a mixture of 1:1 (vol:vol) distilled water: acetone. Surfactant (Alkamuls® EL 620) was added at a rate of 0.1% (vol/vol). The test solution was prepared at the day of use.
Potted cowpea plants were colonized with approximately 50-100 aphids of various stages by manually transferring a leaf tissue cut from infested plant 24 hours before application. Plants were sprayed after the pest population has been recorded. Treated plants were maintained on light carts at about 28° C. Percent mortality was assessed after 72 hours.

Megoura viciae = test: Vetch aphid (Megoura viciae) broad bean leaf disk microtiter test; details: foliar, 120 h, read-out: mortality in comparison with untreated controls
Description: B.2 Vetch Aphid (Megoura viciae)
For evaluating control of vetch aphid (Megoura viciae) through contact or systemic means the test unit consisted of 24-well-microtiter plates containing broad bean leaf disks.
The compounds were formulated using a solution containing 75% v/v water and 25% v/v DMSO. Different concentrations of formulated compounds were sprayed onto the leaf disks at 2.5 μl, using a custom built micro atomizer, at two replications.
After application, the leaf disks were air-dried and 5-8 adult aphids were placed on the leaf disks inside the microtiter plate wells. The aphids were then allowed to suck on the treated leaf disks and were incubated at about 23±1° C. and about 50±5% relative humidity for 5 days. Aphid mortality and fecundity was then visually assessed.

Nephotettix virescens = test: Rice green leafhopper (Nephotettix virescens) test on sprayed rice seedlings; details: 72 h, read-out: mortality in comparison with untreated controls
Description: B.7 Rice Green Leafhopper (Nephotettix virescens)
Rice seedlings were cleaned and washed 24 hours before spraying. The active compounds were formulated in 50:50 acetone:water (vol:vol), and 0.1% vol/vol surfactant (EL 620) was added. Potted rice seedlings were sprayed with 5 ml test solution, air dried, placed in cages and inoculated with 10 adults. Treated rice plants were kept at about 28-29° C. and relative humidity of about 50-60%. Percent mortality was recorded after 72 hours.

Nilaparvata lugens = test: Rice brown plant hopper (Nilaparvata lugens) test on sprayed rice seedlings; details: 72 h, read-out: mortality in comparison with untreated controls
Description: B.8 Rice Brown Plant Hopper (Nilaparvata lugens)
Rice seedlings were cleaned and washed 24 hours before spraying. The active compounds was formulated in 50:50 acetone:water (vol:vol) and 0.1% vol/vol surfactant (EL 620) was added. Potted rice seedlings were sprayed with 5 ml test solution, air dried, placed in cages and inoculated with 10 adults. Treated rice plants were kept at about 28-29° C. and relative humidity of about 50-60%. Percent mortality was recorded after 72 hours.

Dichromothrips corbetti = test: Orchid thrips (Dichromothrips corbetti) floral-immersion test; details: 72 h, read-out: mortality in comparison with untreated controls
Description: B.6 Orchid Thrips (Dichromothrips corbetti)
Dichromothrips corbetti adults used for bioassay were obtained from a colony maintained continuously under laboratory conditions. For testing purposes, the test compound is diluted in a 1:1 mixture of acetone:water (vol:vol), plus 0.01% vol/vol Alkamuls® EL 620 surfactant.
Thrips potency of each compound was evaluated by using a floral-immersion technique. Plastic petri dishes were used as test arenas. All petals of individual, intact orchid flowers were dipped into treatment solution and allowed to dry. Treated flowers were placed into individual petri dishes along with about 20 adult thrips. The petri dishes were then covered with lids. All test arenas were held under continuous light and a temperature of about 28° C. for duration of the assay. After 3 days, the numbers of live thrips were counted on each flower, and along inner walls of each petri dish. The percentmortality was recorded 72 hours after treatment.

CSCC(=O)/N=c1\ccccn1Cc1ccc(Cl)nc1 [E1-9, N-[1-[(6-chloro-3-pyridyl)methyl]-2-pyridylidene]-2-methylsulfanyl-acetamide]
≥ 75%: mortality at 2500 ppm (Myzus persicae) | mortality at 500 ppm (Aphis craccivora) | mortality at 2500 ppm (Megoura viciae) | mortality at 500 ppm (Nephotettix virescens) | mortality at 500 ppm (Nilaparvata lugens)

CS(=O)(=O)CC(=O)N=c1ccccn1Cc1ccc(Cl)nc1 [E1-10, N-[1-[(6-chloro-3-pyridyl)methyl]-2-pyridylidene]-2-methylsulfonyl-acetamide]
≥ 75%: mortality at 500 ppm (Dichromothrips corbetti) | mortality at 2500 ppm (Myzus persicae) | mortality at 500 ppm (Aphis craccivora) | mortality at 2500 ppm (Megoura viciae) | mortality at 500 ppm (Nephotettix virescens) | mortality at 500 ppm (Nilaparvata lugens)
